In patent US10105372B2, “Methods of treating obesity using antioxidant inflammation modulators” (REATA PHARMACEUTICALS, INC., priority 2010, dated 2018):
Entries after “also recorded” stand apart in the source; their conditions may differ.

How the values were obtained:
[1] = 12-month toxicity study, body weight; type: in vivo, cynomolgus monkeys; conditions: for % gain / kg gained: pretest to Week 50
Procedure: All the animals were healthy and within normal weights for their age at the start of the study. The dose levels were 0, 30/5, 100/30, and 300 mg/kg/day and administered at a dose volume of 3 mL per dose. The control group received the vehicle in the same manner as the treated groups. Just prior to administration, the test article for each animal was added to the syringe containing the vehicle for each animal and vortexed until thoroughly mixed to achieved the desired concentrations of 30, 100, and 300 mg/mL through Day 42 (Week 6). During administration, the syringe containing the test article preparation for each animal was pushed through the gavage tube. The 1 mL vehicle rinse was then added to the dosing syringe and administered. After administration of both volumes, a 5 mL flush of the vehicle was used to rinse the gavage tube and ensure that the entire amount of the test article was administered to the animal. […] Therefore, dose levels were adjusted so that different blood exposures could be examined. During Week 7 dosing for all animals was stopped for four days (Days 43 to 46). The initial dose levels of 30 and 100 mg/kg/day were reduced to 5 and 30 mg/kg/day, respectively, and dosing was resumed on Day 47 through Day 353. Individual doses were based on the most recent body weights.

[2] = Phase 2b/3 trial, weight over 52 weeks; type: in vivo, human
Procedure: Weight measurements were included in the study as a basic clinical parameter. […] Screening estimated GFR was calculated as the mean of two estimated GFR results (differing no more than 25%) collected at least 5 days apart within a 3-week period. […] Exclusion criteria included type 1 diabetes, non-diabetic kidney disease, hemoglobin A1c>10%, QTc […] interval >450 milliseconds, evidence of hepatic dysfunction, and recent cardiovascular disease. […] Study drug was taken orally once daily in the morning one hour prior to food intake. Dose titration occurred as follows: (1) placebo; (2) 25 mg; (3) 25 mg, increased to 75 mg after 4 weeks; and (4) 25 mg, increased to 75 mg after 4 weeks, further increased to 150 mg after an additional 4 weeks. Randomization was stratified by CKD stage (3b versus 4), urinary albumin to creatinine ratio (ACR; ≤ versus >300 mg/g), and glucose control (hemoglobin A1c< versus ≥7%). An independent Data Safety Monitoring Board monitored patient safety. […] The double-blinded structure of the study was maintained throughout the 52-week period. […] Treatment was discontinued in all groups at week 52 (including the placebo group), and final clinical and laboratory measurements were taken at week 56.

[3] = 75 mg, Week 56 (treatment discontinued at week 52)
[4] = by week 52, patients treated with bardoxolone methyl

COC(=O)[C@]12CCC(C)(C)C[C@H]1[C@H]1C(=O)C=C3[C@@]4(C)C=C(C#N)C(=O)C(C)(C)[C@@H]4CC[C@@]3(C)[C@]1(C)CC2 [bardoxolone methyl]
Week 26 Weight ([1]; Females, 300 mg/kg/day): 2.552 kg
Week 50 Weight ([1]; Females, 300 mg/kg/day): 2.68 kg
% gain ([1]; Females, 300 mg/kg/day): 28.60%
kg gained ([1]; Females, 300 mg/kg/day): 0.596 kg
Week 26 Weight ([1]; Females, 30/5 mg/kg/day): 2.454 kg
Week 50 Weight ([1]; Females, 30/5 mg/kg/day): 2.608 kg
% gain ([1]; Females, 30/5 mg/kg/day): 26.05%
kg gained ([1]; Females, 30/5 mg/kg/day): 0.539 kg
Week 26 Weight ([1]; Females, 100/30 mg/kg/day): 2.293 kg
Week 50 Weight ([1]; Females, 100/30 mg/kg/day): 2.68 kg
% gain ([1]; Females, 100/30 mg/kg/day): 30.22%
kg gained ([1]; Females, 100/30 mg/kg/day): 0.622 kg
Week 26 Weight ([1]; Males, 300 mg/kg/day): 2.52 kg
Week 50 Weight ([1]; Males, 300 mg/kg/day): 2.808 kg
% gain ([1]; Males, 300 mg/kg/day): 31.15%
kg gained ([1]; Males, 300 mg/kg/day): 0.667 kg
Week 50 Weight ([1]; Males, 30/5 mg/kg/day): 2.975 kg
Week 26 Weight ([1]; Males, 30/5 mg/kg/day oral gavage): 2.567 kg
% gain ([1]; Males, 30/5 mg/kg/day): 39.80%
kg gained ([1]; Males, 30/5 mg/kg/day): 0.847 kg
Week 26 Weight ([1]; Males, 100/30 mg/kg/day): 2.464 kg
Week 50 Weight ([1]; Males, 100/30 mg/kg/day): 2.725 kg
% gain ([1]; Males, 100/30 mg/kg/day): 26.63%
kg gained ([1]; Males, 100/30 mg/kg/day): 0.573 kg
effect on body weight ([1]; healthy monkeys with normal body weights, all treated groups, 26 and 50 weeks): gained significant amounts of weight; also recorded: did not induce weight loss
Change in weight from baseline to Week 52: Decrease >5 kg, patients ([2]; 25 mg, N = 48): 35 (73) n (%)
Change in weight from baseline to Week 52: Decrease >10 kg, patients ([2]; 25 mg, N = 48): 16 (33) n (%)
Change in weight from baseline to Week 52: Decrease >15 kg, patients ([2]; 25 mg, N = 48): 9 (19) n (%)
Change in weight from baseline to Week 52: Decrease within 5 kg, patients ([2]; 25 mg, N = 48): 8 (17) n (%)
Change in weight from baseline to Week 52: Increase >5 kg, patients ([2]; 25 mg, N = 48): 0 n (%)
Change in weight from baseline to Week 52: Increase within 5 kg, patients ([2]; 25 mg, N = 48): 5 (10) n (%)
Change from baseline weight, Mean ([2]; 25 mg, Week 4): -1.4 kg
Change from baseline weight, Mean ([2]; 25 mg, Week 8): -2.7 kg
Change from baseline weight, Mean ([2]; 25 mg, Week 12): -3.9 kg
Change from baseline weight, Mean ([2]; 25 mg, Week 16): -4.3 kg
Change from baseline weight, Mean ([2]; 25 mg, Week 20): -5.0 kg
Change from baseline weight, Mean ([2]; 25 mg, Week 24): -5.9 kg
Change from baseline weight, Mean ([2]; 25 mg, Week 28): -6.3 kg
Change from baseline weight, Mean ([2]; 25 mg, Week 32): -6.7 kg
Change from baseline weight, Mean ([2]; 25 mg, Week 36): -7.4 kg
Change from baseline weight, Mean ([2]; 25 mg, Week 40): -7.9 kg
Change from baseline weight, Mean ([2]; 25 mg, Week 44): -8.2 kg
Change from baseline weight, Mean ([2]; 25 mg, Week 48): -8.8 kg
Change from baseline weight, Mean ([2]; 25 mg, Week 52): -9.3 kg
Change from baseline weight, Mean ([2]; 25 mg, Week 56 (treatment discontinued at week 52)): -7.7 kg
Change in weight from baseline to Week 52: Decrease >5 kg, patients ([2]; 75 mg, N = 48): 32 (67) n (%)
Change in weight from baseline to Week 52: Decrease >10 kg, patients ([2]; 75 mg, N = 48): 14 (29) n (%)
Change in weight from baseline to Week 52: Decrease >15 kg, patients ([2]; 75 mg, N = 48): 4 (8) n (%)
Change in weight from baseline to Week 52: Decrease within 5 kg, patients ([2]; 75 mg, N = 48): 12 (25) n (%)
Change in weight from baseline to Week 52: Increase >5 kg, patients ([2]; 75 mg, N = 48): 0 n (%)
Change in weight from baseline to Week 52: Increase within 5 kg, patients ([2]; 75 mg, N = 48): 4 (8) n (%)
Change from baseline weight, Mean ([2]; 75 mg, Week 4): -1.4 kg
Change from baseline weight, Mean ([2]; 75 mg, Week 8): -2.6 kg
Change from baseline weight, Mean ([2]; 75 mg, Week 12): -3.4 kg
Change from baseline weight, Mean ([2]; 75 mg, Week 16): -4.1 kg
Weight, Mean ([2]; 75 mg, Week 16): 91.7 kg
Change from baseline weight, Mean ([2]; 75 mg, Week 20): -4.4 kg
Weight, Mean ([2]; 75 mg, Week 20): 92.0 kg
Change from baseline weight, Mean ([2]; 75 mg, Week 24): -4.7 kg
Weight, Mean ([2]; 75 mg, Week 24): 91.7 kg
Change from baseline weight, Mean ([2]; 75 mg, Week 28): -5.1 kg
Weight, Mean ([2]; 75 mg, Week 28): 91.8 kg
Change from baseline weight, Mean ([2]; 75 mg, Week 32): -6.2 kg
Weight, Mean ([2]; 75 mg, Week 32): 91.6 kg
Change from baseline weight, Mean ([2]; 75 mg, Week 36): -6.1 kg
Weight, Mean ([2]; 75 mg, Week 36): 91.0 kg
Change from baseline weight, Mean ([2]; 75 mg, Week 40): -6.5 kg
Weight, Mean ([2]; 75 mg, Week 40): 90.6 kg
Change from baseline weight, Mean ([2]; 75 mg, Week 44): -6.9 kg
Weight, Mean ([2]; 75 mg, Week 44): 90.8 kg
Change from baseline weight, Mean ([2]; 75 mg, Week 48): -7.4 kg
Weight, Mean ([2]; 75 mg, Week 48): 90.4 kg
Change from baseline weight, Mean ([2]; 75 mg, Week 52): -7.7 kg
Weight, Mean ([2]; 75 mg, Week 52): 90.0 kg
Change from baseline weight, Mean [2, 3]: -7.6 kg
Weight, Mean [2, 3]: 90.7 kg
Change in weight from baseline to Week 52: Decrease >5 kg, patients ([2]; 150 mg, N = 45): 34 (76) n (%)
Change in weight from baseline to Week 52: Decrease >10 kg, patients ([2]; 150 mg, N = 45): 22 (49) n (%)
Change in weight from baseline to Week 52: Decrease >15 kg, patients ([2]; 150 mg, N = 45): 12 (27) n (%)
Change in weight from baseline to Week 52: Decrease within 5 kg, patients ([2]; 150 mg, N = 45): 8 (18) n (%)
Change in weight from baseline to Week 52: Increase >5 kg, patients ([2]; 150 mg, N = 45): 1 (2) n (%)
Change in weight from baseline to Week 52: Increase within 5 kg, patients ([2]; 150 mg, N = 45): 2 (4) n (%)
Change from baseline weight, Mean ([2]; 150 mg, Week 4): -1.3 kg
Change from baseline weight, Mean ([2]; 150 mg, Week 8): -2.1 kg
Change from baseline weight, Mean ([2]; 150 mg, Week 12): -3.3 kg
Change from baseline weight, Mean ([2]; 150 mg, Week 16): -3.9 kg
Change from baseline weight, Mean ([2]; 150 mg, Week 20): -5.0 kg
Change from baseline weight, Mean ([2]; 150 mg, Week 24): -5.8 kg
Change from baseline weight, Mean ([2]; 150 mg, Week 28): -6.7 kg
Change from baseline weight, Mean ([2]; 150 mg, Week 32): -7.2 kg
Change from baseline weight, Mean ([2]; 150 mg, Week 36): -8.1 kg
Change from baseline weight, Mean ([2]; 150 mg, Week 40): -8.7 kg
Change from baseline weight, Mean ([2]; 150 mg, Week 44): -9.2 kg
Change from baseline weight, Mean ([2]; 150 mg, Week 48): -10 kg
Change from baseline weight, Mean ([2]; 150 mg, Week 52): -10 kg
Change from baseline weight, Mean ([2]; 150 mg, Week 56 (treatment discontinued at week 52)): -9.6 kg
fraction of patients who had lost more than 5 kg [2, 4]: at least two thirds
fraction of patients who had lost more than 10 kg [2, 4]: Approximately one third
